Data: PubChem BioAssay (NCI)
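Grown in 96-well plates, cells were treated for 48 hours with each compound at five concentrations. Insufficient inhibition: endpoint recorded as highest concentration tested. GI50: concentration for 50% inhibition of growth. TGI is the concentration that stops growth completely.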

Key:
Test in all cases: inhibition of tumour cell growth, NCI panel, 48 h
LOX IMVI melanoma = tested on: LOX IMVI melanoma
DLD-1 colon = tested on: DLD-1 colon
786-0 renal = tested on: 786-0 renal
SF-539 CNS = tested on: SF-539 CNS
UO-31 renal = tested on: UO-31 renal
LXFL 529 NSCLC = tested on: LXFL 529 NSCLC
SK-MEL-2 melanoma = tested on: SK-MEL-2 melanoma
SF-268 CNS = tested on: SF-268 CNS
UACC-257 melanoma = tested on: UACC-257 melanoma
NCI/ADR-RES ovarian = tested on: NCI/ADR-RES ovarian

Row | Compound | TGI (LOX IMVI melanoma) | TGI (DLD-1 colon) | TGI (786-0 renal) | TGI (SF-539 CNS) | TGI (UO-31 renal) | TGI (LXFL 529 NSCLC) | TGI (SK-MEL-2 melanoma) | TGI (SF-268 CNS) | TGI (UACC-257 melanoma) | GI50 (LOX IMVI melanoma) | GI50 (DLD-1 colon) | GI50 (786-0 renal) | GI50 (SF-539 CNS) | GI50 (UO-31 renal) | GI50 (LXFL 529 NSCLC) | GI50 (SF-268 CNS) | GI50 (NCI/ADR-RES ovarian) | TGI (NCI/ADR-RES ovarian) | GI50 (UACC-257 melanoma) | GI50 (SK-MEL-2 melanoma)
1 | C=C(COC(C)=O)CC(/C=C(\C)CCC=C(C)C)OC(C)=O (stereo not drawn) | > 100 µM | > 100 µM | > 100 µM | > 100 µM | > 100 µM | > 100 µM | > 100 µM | > 100 µM |  |  |  |  |  |  |  |  |  |  |  | 
2 | Clc1ccc(CNc2nc3ccccc3nc2-c2cccs2)c(Cl)c1 |  |  | > 100 µM | > 100 µM | > 100 µM | > 100 µM | > 100 µM | > 100 µM | > 100 µM |  |  |  |  |  |  |  |  |  |  | 
3 | O=C1c2ccccc2-c2cccc3ccc(Cc4ccccc4)c1c23 |  | > 100 µM | > 100 µM | > 100 µM | > 100 µM | > 100 µM | > 100 µM | > 100 µM | > 100 µM |  |  |  |  |  |  |  |  |  |  | 
4 | CN(C)C(=S)/N=c1\ss/c(=N\S(=O)(=O)c2ccccc2)n1-c1ccccc1 | > 100 µM | > 100 µM | > 100 µM | > 100 µM | > 100 µM |  | > 100 µM | > 100 µM | > 100 µM |  |  |  |  |  |  |  |  |  |  | 
5 | c1cc[c]([Sn]([S]c2cccc3cccnc23)([c]2ccccc2)[c]2ccccc2)cc1 | 0.0304 µM | 0.101 µM | 0.0758 µM | 0.393 µM | 0.145 µM | 0.0548 µM |  | 0.241 µM |  | 0.0159 µM | 0.0321 µM | 0.0234 µM | 0.0725 µM | 0.0511 µM | 0.0209 µM | 0.0469 µM |  |  |  | 
6 | COc1ccc(C(=O)C(C(=O)CCC(=O)Nc2cccc(C(F)(F)F)c2)c2ccccc2)cc1 (stereo not drawn) |  | > 100 µM | > 100 µM | > 100 µM | > 100 µM | > 100 µM | > 100 µM | > 100 µM | > 100 µM |  |  |  |  |  |  |  |  |  |  | 
7 | CC1CCCC(C(=O)/C(=C/c2cccc(Cl)c2)C(=O)C(=O)O)C1 (stereo not drawn) |  | 40.3 µM | 33 µM | 64.9 µM | > 100 µM | 43 µM |  | 92.3 µM | > 100 µM |  |  |  |  |  |  |  |  |  |  | 
8 | COc1ccc(C2=NC(C)(C)CO2)cc1 | > 100 µM | > 100 µM | > 100 µM | > 100 µM |  |  | > 100 µM | > 100 µM | > 100 µM |  |  |  |  |  |  |  |  |  |  | 
9 | Cc1c(C(=O)NN)nnn1-c1ccnc2c(C(F)(F)F)cccc12 | > 100 µM |  | > 100 µM | > 100 µM | > 100 µM |  | > 100 µM | > 100 µM | > 100 µM | > 100 µM |  | > 100 µM | > 100 µM | > 100 µM |  | > 100 µM | > 100 µM | > 100 µM | > 100 µM | > 100 µM
10 | Cc1ccc(C(=O)CC(Sc2cccc(Cl)c2Cl)c2ccc(Cl)cc2)cc1C (stereo not drawn) | 32.2 µM |  | 36.2 µM | 53.6 µM | 40.9 µM |  | 39 µM | 48.2 µM | 48.6 µM | 13.5 µM |  | 17.8 µM | 22.8 µM | 20 µM |  | 21.3 µM | 23.3 µM | 48.9 µM | 20.9 µM | 20.2 µM
11 | CCN(CCO)CCNc1ccc(C)c2sc3cc(Cl)ccc3c(=O)c12 | 3.06 µM |  | 2.84 µM | 3.43 µM | 2.4 µM |  | 3.56 µM | 3.04 µM | 3.55 µM | 1.59 µM |  | 1.41 µM | 1.73 µM | 1.1 µM |  | 1.44 µM | 1.49 µM | 3.11 µM | 1.97 µM | 1.78 µM
12 | CCCSc1cc(Cl)nc(N)n1 | > 100 µM |  | > 100 µM | > 100 µM | > 100 µM |  | > 100 µM | > 100 µM | > 100 µM | > 100 µM |  | > 100 µM | > 100 µM | 71.5 µM |  | > 100 µM | > 100 µM | > 100 µM | > 100 µM | > 100 µM
13 | CNC(=O)c1cc(Oc2ccc(NC(=O)Nc3ccc(Cl)c(OC(F)(F)F)c3)c(F)c2)ccn1 | 25.2 µM |  | > 33.2 µM | 8.13 µM | 13.3 µM |  | 5.86 µM | 14.2 µM | 6.54 µM | 1.76 µM |  | 4.65 µM | 3.38 µM | 1.07 µM |  | 2.44 µM | 1.37 µM | 5.22 µM | 1.19 µM | 1.03 µM
14 | O=C(N/N=C/c1ccc(Cl)cc1Cl)c1ccccc1Nc1cccc(C(F)(F)F)c1 | 63.7 µM |  | 31 µM | 12.8 µM | 22.1 µM |  | 10.7 µM | 13.3 µM | 25.4 µM | 7.26 µM |  | 6.74 µM | 3.36 µM | 3.14 µM |  | 3.38 µM | 5.97 µM | 36.7 µM | 4.27 µM | 2.76 µM
15 | COc1cc(-c2cn(C)c(=O)c(C)c2C)cc(OC)c1CN1CC[C@H](N2CCN(c3ccc(N[C@H]4CCC(=O)NC4=O)cc3F)CC2)C(F)(F)C1 | 24.9 µM |  | 36.6 µM | 28.6 µM | 17.6 µM |  | 29.4 µM | 40.2 µM | 24.2 µM | 11.5 µM |  | 12.8 µM | 14.4 µM | 4.56 µM |  | 16.5 µM | 12.9 µM | 30.5 µM | 10.5 µM | 14.6 µM
16 | C[C@H]1CCC/C=C/[C@@H]2C[C@H](N)C[C@H]2[C@H](O)/C=C/C(=O)O1 | > 100 µM |  | > 100 µM | > 100 µM | > 100 µM |  | > 100 µM | > 100 µM | > 100 µM | > 100 µM |  | > 100 µM | > 100 µM | > 100 µM |  | > 100 µM | > 100 µM | > 100 µM | > 100 µM | > 100 µM
17 | CC1=C(C)C(=O)O[C@@H]([C@](C)(O)[C@]2(O)CC[C@@]3(O)[C@@H]4C[C@H]5O[C@]56CC=CC(=O)[C@]6(C)[C@H]4CC[C@]23C)C1 | 1.38 µM |  | 1.96 µM | 1.62 µM | 1.46 µM |  | 0.481 µM | 2.35 µM | 2.33 µM | 0.188 µM |  | 0.284 µM | 0.272 µM | 0.0957 µM |  | 0.424 µM | 2.76 µM | > 63.8 µM | 0.172 µM | 0.0761 µM
18 | CCCCCCNc1nc(NCCCCCC)c2[nH]c(NCCCCCC)nc2n1 | 7.53 µM |  | 27.6 µM | 21.1 µM | 35 µM |  | 28.7 µM | 15.5 µM | 32.9 µM | 2.66 µM |  | 14.5 µM | 7.39 µM | 14 µM |  | 4.36 µM | 64.5 µM | > 100 µM | 17 µM | 11.5 µM
19 | CS(=O)(=O)Nc1ccc(-c2ccc3c(NC(=O)C4CC4)n[nH]c3c2)cc1 | > 25 µM |  | > 25 µM | > 25 µM | > 25 µM |  | > 25 µM | > 25 µM | > 25 µM | > 25 µM |  | > 25 µM | > 20 µM | > 25 µM |  | > 25 µM | > 25 µM | > 25 µM | > 25 µM | > 18.5 µM
20 | CN1CCN(C)C1c1cccc(C2N(C)CCN2C)c1 | > 100 µM | > 100 µM | > 100 µM | > 100 µM | > 100 µM | > 100 µM | > 100 µM | > 100 µM |  |  |  |  |  |  |  |  |  |  |  | 
21 | CN1CCN(Cc2ccc(NC(=O)c3ccc(C(C)(C)C)c(C#Cc4cnc5cccnn45)c3)cc2C(F)(F)F)CC1 | 2.87 µM |  | 3.24 µM | 4.14 µM | 3.9 µM |  | 22.5 µM | 3.82 µM | 3.68 µM | 1.52 µM |  | 1.67 µM | 2.03 µM | 1.93 µM |  | 1.87 µM | 2.34 µM | 5.86 µM | 1.89 µM | 8.8 µM
22 | Nc1ccc(SC23CC4CC(CC(C4)C2)C3)cc1 | > 100 µM |  | > 100 µM | > 100 µM | > 100 µM |  | > 100 µM | > 100 µM | > 100 µM |  |  |  |  |  |  |  |  | > 100 µM |  | 
23 | Cc1ncc(NC(=O)c2ccc(CN3CCN(C)CC3)c(C(F)(F)F)c2)cc1Nc1nccc(-c2cccnc2)n1 | 3.18 µM |  | 29.7 µM | 24.4 µM | 24 µM |  | 29.4 µM | 33.7 µM | 27.9 µM | 1.64 µM |  | 15.9 µM | 11.8 µM | 11.7 µM |  | 17.4 µM | 17.8 µM | 34.8 µM | 14.4 µM | 14.7 µM
24 | C=C(C)[C@@H]1CC[C@@]2(C(=O)O)CC[C@]3(C)C(CCC4[C@@]5(C)CCC(OS(=O)(=O)c6ccccc6)C(C)(C)C5CC[C@]43C)C12 (stereo partly drawn) | 18.6 µM |  | 19 µM | 22.4 µM | 15.9 µM |  | 16.3 µM | 51.5 µM | 39.6 µM | 5.99 µM |  | 4.73 µM | 9.93 µM | 2.79 µM |  | 13.6 µM | 3.52 µM | 18 µM | 4.76 µM | 4.4 µM
25 | NCCN1CCN(c2nccc(-c3ccc4ccccc4c3)n2)CC1 | 3.31 µM |  | 3.17 µM | 3.28 µM | 2.96 µM |  | 4.36 µM | 3.49 µM | 3.41 µM | 1.76 µM |  | 1.69 µM | 1.79 µM | 1.5 µM |  | 1.75 µM | 2.48 µM | 6.71 µM | 1.86 µM | 2.21 µM
